Measurements reported in ChEMBL document CHEMBL4052788, “Pocket detection and interaction-weighted ligand-similarity search yields novel high-affinity binders for Myocilin-OLF, a protein implicated in glaucoma” (Bioorg Med Chem Lett, 2017).

Columns and labels:
Myocilin (Homo sapiens) [1] = biological target: T1, Myocilin (Homo sapiens) (UniProt Q99972); assay: Binding affinity myocilin-OLF domain (unknown origin) assessed as change in melting temperature by Sypro Orange dye-based DSF assay
T1 sequence (whole entry): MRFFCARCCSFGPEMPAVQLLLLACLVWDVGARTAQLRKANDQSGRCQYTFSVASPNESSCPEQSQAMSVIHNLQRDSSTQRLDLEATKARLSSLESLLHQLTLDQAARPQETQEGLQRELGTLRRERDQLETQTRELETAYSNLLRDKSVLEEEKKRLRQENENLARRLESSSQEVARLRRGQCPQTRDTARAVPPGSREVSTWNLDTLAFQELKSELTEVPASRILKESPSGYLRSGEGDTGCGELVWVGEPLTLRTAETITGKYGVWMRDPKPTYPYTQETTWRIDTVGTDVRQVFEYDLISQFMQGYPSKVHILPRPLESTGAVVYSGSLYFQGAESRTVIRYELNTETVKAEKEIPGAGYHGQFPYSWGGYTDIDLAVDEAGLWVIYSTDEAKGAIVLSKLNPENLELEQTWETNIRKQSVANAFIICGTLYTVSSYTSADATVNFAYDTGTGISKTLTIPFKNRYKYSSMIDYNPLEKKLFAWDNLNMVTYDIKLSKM

Myocilin (Homo sapiens) [2] = biological target: T1, Myocilin (Homo sapiens); assay: Binding affinity myocilin-OLF domain (unknown origin) assessed as change in melting temperature by SRP assay
Myocilin [3] = biological target: T2, Myocilin (Homo sapiens, UniProt Q99972); assay: Binding affinity myocilin-OLF domain (unknown origin) by SRP assay
T2 sequence (Q99972 whole entry): T1 sequence (whole entry)

Myocilin [4] = biological target: T2, Myocilin; assay: Binding affinity myocilin-OLF domain (unknown origin) by Sypro Orange dye-based DSF assay; settings: read-out: Kd(app)

SMILES	ΔTm (Myocilin (Homo sapiens) [1])	ΔTm (Myocilin (Homo sapiens) [2])	Kd (Myocilin [3])	Kd (Myocilin [4])
COc1cccc(NC(S)=Nc2ccc(O)cc2)c1	32 °C			
O=c1cc(-c2ccc(O)cc2)oc2cc(O)cc(O)c12 [APIGENIN]		-0.3 °C	41.6 µM	
O=C(/C=C/c1ccc(O)c(O)c1)c1ccccc1O	16.4 °C			0.099 µM
Cc1cc(N(CCCl)CCCl)ccc1/C=N/NC(=O)Cc1cc(=O)oc2cc(O)ccc12	1.6 °C			210 µM
O=C(Cn1ccc(=O)[nH]c1=O)Nc1ccc(C(=O)O)c(O)c1	1.96 °C			200 µM
O=C1c2ccccc2C(=O)C1C(c1ccc([N+](=O)[O-])cc1)C1C(=O)c2ccccc2C1=O	2.02 °C			170 µM
COc1cc(C(=O)C(=O)c2ccc(O)c(OC)c2)ccc1O	0.91 °C			300 µM
CN(C)c1ccc(/C=C/C(=O)c2cc(Cl)ccc2O)cc1	1.5 °C			220 µM
O=C1Nc2ccc(I)cc2C1=Cc1cc(Br)c(O)c(Br)c1 [GW305074X]		0.2 °C	33.5 µM	
Cc1ccc(C(C)C)cc1NC(=O)Nc1ccc([N+](=O)[O-])cc1	6.3 °C			11 µM
O=C(Nc1ccc(Oc2ccc(NC(=O)Nc3ccc([N+](=O)[O-])cc3)cc2)cc1)Nc1ccc([N+](=O)[O-])cc1	11.2 °C			0.65 µM
Nc1nc(N)c(/N=N/c2ccc(C(=O)O)cc2)c(N)n1	1.78 °C			190 µM
